This is an account of results in patent publication US20260151453A1, “COMBINATION THERAPY FOR THE TREATMENT OF CANCER” (PEPTOMYC, S.L., priority 2022, published 2026).

One assay has as its system MIA-PACA-2 cells. Kind of assay: Viability of PDAC MIA-PACA-2 cells treated alone and in combination for 5 days; synergy score by SynergyFinder.org. The note with it: MIA-PACA-2, single agent, 5 days (FIG. 2). The class given is cell-based. The source says: Synergy scores can be interpreted as the average excess response due to drug interactions. Synergy scores close to 0 give limited confidence in synergy or antagonism. So, when the synergy scores are: less than −10, the interaction between two drugs is likely to be antagonistic. From −10 to 10, the interaction between two drugs is likely to be additive. Greater than 10, the interaction between two drugs is likely to be synergistic.
Pancreatic ductal adenocarcinoma (PDAC) MIA-PACA-2 cells were treated with increasing concentrations of Olaparib and the Omomyc peptide sequence SEQ ID NO: 4 alone and in combination, for 5 days.
Then synergy score was calculated by SynergyFinder.org after having carried out 3 biological replicates as described above.

For assay [1], the system named is SUM149 cell-derived xenograft (CDX). Briefly: SUM149 cell-derived xenograft (CDX) model, orthotopic in mammary fat-pad, tumour growth. The class given is in vivo. The following applies: SUM149 CDX mice, 4 weeks; Omomyc 50 mg/kg intravenous once a week; Olaparib 50 mg/kg oral gavage 6 times a week; preliminary. The method, then:
SUM149 cell-derived xenograft (CDX) model mice were used for in vivo studies. Each mouse was inoculated orthotopically in the mammary fat-pad with 5 million cells. As the tumours reached 100 mm^3, mice were randomised in 4 treatment groups. Specifically, mice were treated with Omomyc once a week (50 mg/kg, intravenous), with Olaparib 6 times a week (50 mg/kg oral gavage), with the combination of the 2 drugs (combo) or with vehicle alone for 4 weeks. Relative volume was calculated as a percentage of tumour growth from the day of randomization and beginning of treatments. At end-point the average of the groups were respectively: vehicle 901.8%, Omomyc 663.6%, Olaparib 623.6%, and combination 335.8%.

In the case of `O=C(c1cc(Cc2n[nH]c(=O)c3ccccc23)ccc1F)N1CCN(C(=O)C2CC2)CC1` [Olaparib, reference compound], the “sensitivity of the cell line to the single agent (viability)” value in the assay on MIA-PACA-2 cells was “particularly resistant”. For the same compound, in assay [1], the “Relative volume, percentage of tumour growth from the day of randomization (group average at end-point)” value is listed as 623.6%.
